Measurements as given in patent US10906951B2, “Modified natural killer cells and natural killer cell lines having increased cytotoxicity” (ONK THERAPEUTICS LIMITED, priority 2015, dated 2021).
Like-named read-outs stand apart in the source and are kept apart here.

Legend:
MM1.S cells = assay: Bortezomib-induced sensitization of MM1.S cells to KHYG-1 cells expressing TRAIL variant; assay type: cell-based; conditions: MM1.S pretreated with 2.5 nM for 24 hours, 1:1 co-culture 12 hours, FIG. 19
Description: KHYG-1 cells were transfected with the TRAIL variant (TRAIL D269H/E195R), as described above in Example 6.
(1) Bortezomib treated/untreated MM1.S cells were used as target cells. MM1.S cells were treated with 2.5 nM of Bortzeomib or vehicle (control) for 24 hours.
(2) 6 hours after electroporation of TRAIL variant mRNA, KHYG-1 cells were then cultured with MM cells in 12-well plate. After washing, cell concentrations were adjusted to 1×10^6/mL, before mixing KHYG-1 and MM1.S cells at 1:1 ratio to culture for 12 hours.
(3) Flow cytometric analysis of the cytotoxicity of KHYG-1 cells was carried out. The co-cultured cells were collected, washed and then stained with CD2-APC antibody (5 uL/test), AnnexinV-FITC (5 uL/test) and SYTOX-Green (5 uL/test) using AnnexinV binding buffer.
(4) Data were further analyzed using FlowJo 7.6.2 software. CD2-negative population represents MM1.S cells. KHYG-1 cells are strongly positive for CD2. Finally, the AnnexinV-FITC and SYTOX-Green positive cells in the CD2-negative population were analyzed.
Flow cytometric analysis of apoptosis was performed in Bortezomib-pretreated/untreated MM1.S cells co-cultured with KHYG-1 cells electroporated with/without TRAIL variant (FIG. 19).

DR5 = conditions: low dose, 24 hours, FIG. 18
Description: Bortezomib was bought from Millennium Pharmaceuticals. Mouse anti-human DR5-AF647 (catalog number: 565498) was bought from BD Pharmingen. The stained cell samples were analyzed on BD FACS Canto II. (1) MM cell lines RPM18226 and MM1.S were grown in RPM11640 medium (Sigma, St Louis, Mo., USA) supplemented with 2 mM L-glutamine, 10 mM HEPES, 24 mM sodium bicarbonate, 0.01% of antibiotics and 10% fetal bovine serum (Sigma, St Louis, Mo., USA), in 5% CO2 atmosphere at 37° C. (2) MM cells were seeded in 6-well plates at 1×10^6/mL, 2 mL/well. (3) MM cells were then treated with different doses of Bortezomib for 24 hours. (4) DR5 expression in Bortezomib treated/untreated MM cells was then analyzed by flow cytometry (FIG. 18).

MM cells = tested on: MM cells
Description: (1) MM cell lines RPM18226 and MM1.S were grown in RPM11640 medium (Sigma, St Louis, Mo., USA) supplemented with 2 mM L-glutamine, 10 mM HEPES, 24 mM sodium bicarbonate, 0.01% of antibiotics and 10% fetal bovine serum (Sigma, St Louis, Mo., USA), in 5% CO2 atmosphere at 37° C.
(2) MM cells were seeded in 6-well plates at 1×10^6/mL, 2 mL/well.
(3) MM cells were then treated with different doses of Bortezomib for 24 hours.

perforin = assay: CMA-induced reduction of perforin expression in KHYG-1 cells, flow cytometry; assay type: cell-based, human; conditions: 100 nM for 2 hours, FIG. 20
Description: Mouse anti-human perforin-AF647 (catalog number: 563576) was bought from BD pharmingen. Concanamycin A (catalog number: SC-202111) was bought from Santa Cruz Biotechnology. The stained cell samples were analyzed using a BD FACS Canto II.
(1) KHYG-1 cells were cultured in RPM11640 medium containing 10% FBS (fetal bovine serum), 2 mM L-glutamine, penicillin (100 U/mL)/streptomycin ([…]), and IL-2 (10 ng/mL).
(§1) (2) KHYG-1 cells (6 hours after electroporation, cultured in penicillin/streptomycin free RPMI1640 medium) were further treated with 100 nM CMA or equal volume of vehicle (DMSO) for 2 hours.
(3) The cells were collected (1×10^6 cells/test) by centrifugation (1500 rpm×5 minutes) and the supernatant was aspirated.
(4) The cells were fixed in 4% paraformaldehyde in PBS solution at room temperature for 15 minutes.
(5) The cells were washed with 4 mL of FACS Buffer (PBS, 0.5-1% BSA, 0.1% sodium azide) twice.
(6) The cells were permeabilized with 1 mL of PBS/0.1% saponin buffer for 30 minutes at room temperature.
(7) The cells were washed with 4 mL of PBS/0.1% saponin buffer.
(8) The cells were re-suspended in 100 uL of PBS/0.1% saponin buffer, before adding 5 uL of the antibody to each tube and incubating for 30 minutes on ice. […]
(11) The cells were analyzed on the flow cytometer (BD FACS Canto II). […]

KHYG-1 cells = assay: KHYG-1 cell viability after CMA treatment; assay type: cell-based; conditions: 100 nM CMA or vehicle, FIG. 21
Description: as §1

decoy receptor DcR1 = target: T1, decoy receptor DcR1 (Homo sapiens, UniProt O14798); conditions: surface plasmon resonance; WO 2009/077857; cited from earlier work
T1 sequence (O14798 26-236): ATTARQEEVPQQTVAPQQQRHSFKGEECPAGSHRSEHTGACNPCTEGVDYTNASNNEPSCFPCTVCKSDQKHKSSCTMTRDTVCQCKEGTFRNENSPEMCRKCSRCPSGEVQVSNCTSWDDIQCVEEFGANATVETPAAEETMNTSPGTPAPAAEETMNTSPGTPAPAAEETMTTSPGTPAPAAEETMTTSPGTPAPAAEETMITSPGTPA

DR4 = DR4 (Homo sapiens, UniProt O00220); conditions: surface plasmon resonance; WO 2009/077857; cited from earlier work

CC(C)C[C@H](NC(=O)[C@H](Cc1ccccc1)NC(=O)c1cnccn1)B(O)O [Bortezomib]
sensitivity of MM cells to KHYG-1 cells expressing the TRAIL variant (MM1.S cells): induced sensitivity of MM cells | DR5 expression (DR5; MM1.S cells): increase DR5 expression | DR5 expression (DR5; RPMI8226 cells): increase DR5 expression | toxicity at high doses (MM cells; high doses): high toxicity resulting in most of the MM cells dying | induction of apoptosis associated with DR5 upregulation (MM cells; low dose, data not shown): minor induction of apoptosis

C/C=C/[C@H]1O[C@@](O)([C@@H](C)[C@H](O)[C@H](C)[C@H]2OC(=O)/C(OC)=C/C(C)=C/[C@@H](C)[C@@H](O)[C@@H](CC)[C@@H](O)[C@H](C)C/C(C)=C/C=C/[C@@H]2OC)C[C@@H](O[C@H]2C[C@@H](O)[C@H](OC(N)=O)[C@@H](C)O2)[C@@H]1C [CMA, Concanamycin A]
perforin expression level (perforin): significantly decreased | viability of KHYG-1 cells (KHYG-1 cells): no negative effects

Wildtype TRAIL: wildtype TRAIL ligand; DNA sequence SEQ ID NO: 13
Kd (decoy receptor DcR1): > 0.02 µM | Kd (DR4): > 0.002 µM
